# Results reported in ChEMBL document CHEMBL1201862, “PubChem BioAssay data set” (2004).
# The source made the active and inactive calls.
# Tests used:
# [1] = molecular target: Hepatocyte growth factor receptor (Homo sapiens, UniProt P08581); type: functional;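 also: kinase panel profiling across the kinome, with MET as the panel member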
# [2] = molecular target: Serine/threonine-protein kinase Nek2 (Homo sapiens, UniProt P51955); type: functional
# Aurora kinase B = Aurora kinase B (Homo sapiens, UniProt Q96GD4); type: functional
# Aurora kinase B, sequence (Q96GD4 whole entry, the tested form may be a part): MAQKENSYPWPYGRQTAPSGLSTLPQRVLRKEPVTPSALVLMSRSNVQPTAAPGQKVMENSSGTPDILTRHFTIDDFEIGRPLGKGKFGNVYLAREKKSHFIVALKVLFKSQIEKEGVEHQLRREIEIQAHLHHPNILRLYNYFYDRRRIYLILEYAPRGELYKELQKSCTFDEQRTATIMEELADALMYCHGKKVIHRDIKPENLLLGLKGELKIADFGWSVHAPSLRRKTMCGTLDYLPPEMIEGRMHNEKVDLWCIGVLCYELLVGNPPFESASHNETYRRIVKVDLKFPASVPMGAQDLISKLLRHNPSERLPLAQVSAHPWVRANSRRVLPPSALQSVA
# LIM domain kinase 1 = LIM domain kinase 1 (Homo sapiens, UniProt P53667); assay: Navigating the Kinome. Panel member name: LIMK1; type: functional
# LIM domain kinase 1, sequence (P53667 whole entry, the tested form may be a part): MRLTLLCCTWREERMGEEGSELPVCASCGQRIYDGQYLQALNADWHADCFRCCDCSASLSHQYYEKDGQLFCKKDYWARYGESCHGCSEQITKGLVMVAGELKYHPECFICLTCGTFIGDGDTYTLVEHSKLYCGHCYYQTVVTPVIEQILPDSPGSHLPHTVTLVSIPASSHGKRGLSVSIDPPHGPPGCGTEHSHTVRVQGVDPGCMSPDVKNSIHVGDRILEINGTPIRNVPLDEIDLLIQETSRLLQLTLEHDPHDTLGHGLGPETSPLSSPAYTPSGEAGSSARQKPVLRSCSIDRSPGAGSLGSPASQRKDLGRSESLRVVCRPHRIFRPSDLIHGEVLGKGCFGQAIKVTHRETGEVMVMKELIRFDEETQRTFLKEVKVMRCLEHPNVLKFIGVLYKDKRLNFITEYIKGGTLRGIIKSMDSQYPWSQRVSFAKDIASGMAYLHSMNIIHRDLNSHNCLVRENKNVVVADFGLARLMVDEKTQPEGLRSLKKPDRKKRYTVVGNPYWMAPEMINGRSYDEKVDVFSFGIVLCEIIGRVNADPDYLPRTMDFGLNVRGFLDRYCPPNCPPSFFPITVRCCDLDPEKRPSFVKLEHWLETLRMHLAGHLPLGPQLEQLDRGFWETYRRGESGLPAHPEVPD
# [3] = viability loss in CEM21 cells – cell-based, CellTiter-Glo luminescence, cherry-picked, cytotoxicity control for viral fusion inhibitor project, dose response (AID 652042); type: functional;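 also: potency for signal decrease meaning cytotoxicity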
# [4] = blockers of HIV-1 envelope-mediated cell-cell fusion – cherry-pick, dose response (AID 652057); type: functional, cell-based
# [5] = NIH3T3 cell viability loss – ATP luminescence, mouse fibroblasts, counter-screen, dose response (AID 2010); type: functional, cell-based;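 also: cells exposed to compound for about 90 hours before reading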
# HeLa = assay: Cytotoxicity counterscreen assay for transcriptional activators of heat shock protein 70 (Hsp70). [Related pubchem assays: 1203, 1252 ]; type: functional; conditions: Homo sapiens;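 also: cells exposed to compound for 16 hours before readout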
# [6] = alpha-synuclein stem-loop luciferase translation blockers – H4 neuroglioma cells, luminescence, confirmation (AID 1988); type: functional, cell-based
# Hexokinase-1 = molecular target: T1, Hexokinase-1 (Homo sapiens, UniProt P19367); assay: HK1 enzyme activation by HKDC1 hits – biochemical, selectivity assay for HKDC1 activator project, dose response (AID 504762); type: functional
# T1 sequence (P19367 whole entry): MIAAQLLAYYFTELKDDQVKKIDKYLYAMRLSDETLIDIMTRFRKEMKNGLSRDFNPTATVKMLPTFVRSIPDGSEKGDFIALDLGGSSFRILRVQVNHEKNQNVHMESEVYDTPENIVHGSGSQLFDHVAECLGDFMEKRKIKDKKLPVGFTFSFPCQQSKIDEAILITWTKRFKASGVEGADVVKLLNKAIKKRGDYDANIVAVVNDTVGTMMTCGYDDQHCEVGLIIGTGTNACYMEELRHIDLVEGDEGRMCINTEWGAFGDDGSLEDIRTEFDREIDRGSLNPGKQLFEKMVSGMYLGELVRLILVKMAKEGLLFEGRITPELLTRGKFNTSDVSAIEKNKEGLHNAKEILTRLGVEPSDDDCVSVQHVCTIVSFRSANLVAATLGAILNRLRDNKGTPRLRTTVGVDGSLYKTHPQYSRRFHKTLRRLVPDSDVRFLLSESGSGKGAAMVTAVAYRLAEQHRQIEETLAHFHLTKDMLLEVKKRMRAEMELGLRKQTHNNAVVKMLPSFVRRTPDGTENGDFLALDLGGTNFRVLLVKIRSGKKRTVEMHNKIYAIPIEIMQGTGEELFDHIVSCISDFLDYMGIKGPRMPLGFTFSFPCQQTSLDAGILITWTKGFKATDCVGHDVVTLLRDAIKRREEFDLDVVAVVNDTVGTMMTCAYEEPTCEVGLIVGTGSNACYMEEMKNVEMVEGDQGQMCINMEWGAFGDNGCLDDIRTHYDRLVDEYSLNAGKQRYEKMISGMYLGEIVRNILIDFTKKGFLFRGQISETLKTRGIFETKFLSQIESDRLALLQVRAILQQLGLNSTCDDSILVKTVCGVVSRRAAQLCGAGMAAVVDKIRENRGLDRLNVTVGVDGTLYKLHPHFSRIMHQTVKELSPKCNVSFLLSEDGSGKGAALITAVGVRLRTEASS
# [7] = molecular target: T2, Ubiquitin-conjugating enzyme E2 N (Homo sapiens, UniProt P61088); type: functional
# T2 sequence (P61088 whole entry): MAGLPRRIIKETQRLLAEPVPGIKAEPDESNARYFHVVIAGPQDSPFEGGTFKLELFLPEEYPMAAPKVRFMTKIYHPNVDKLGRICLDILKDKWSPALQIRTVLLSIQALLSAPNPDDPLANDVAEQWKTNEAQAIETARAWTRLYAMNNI
# Bcl-2-related protein A1 = molecular target: T3, Bcl-2-related protein A1 (Mus musculus, UniProt Q07440); type: functional;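 also: confirmatory dose–response counterscreen on Bfl-1, used to check hits from a UBC13 polyubiquitin inhibitor campaign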
# T3 sequence (Q07440 whole entry): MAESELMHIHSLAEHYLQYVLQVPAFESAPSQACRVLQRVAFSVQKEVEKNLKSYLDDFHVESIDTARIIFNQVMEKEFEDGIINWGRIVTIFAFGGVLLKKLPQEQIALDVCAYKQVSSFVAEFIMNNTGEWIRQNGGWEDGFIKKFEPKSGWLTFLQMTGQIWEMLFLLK
# [8] = molecular target: Platelet-derived growth factor receptor alpha (Homo sapiens, UniProt P16234); assay: Navigating the Kinome. Panel member name: PDGFRA; type: functional
# Platelet-derived growth factor receptor alpha, sequence (P16234 whole entry): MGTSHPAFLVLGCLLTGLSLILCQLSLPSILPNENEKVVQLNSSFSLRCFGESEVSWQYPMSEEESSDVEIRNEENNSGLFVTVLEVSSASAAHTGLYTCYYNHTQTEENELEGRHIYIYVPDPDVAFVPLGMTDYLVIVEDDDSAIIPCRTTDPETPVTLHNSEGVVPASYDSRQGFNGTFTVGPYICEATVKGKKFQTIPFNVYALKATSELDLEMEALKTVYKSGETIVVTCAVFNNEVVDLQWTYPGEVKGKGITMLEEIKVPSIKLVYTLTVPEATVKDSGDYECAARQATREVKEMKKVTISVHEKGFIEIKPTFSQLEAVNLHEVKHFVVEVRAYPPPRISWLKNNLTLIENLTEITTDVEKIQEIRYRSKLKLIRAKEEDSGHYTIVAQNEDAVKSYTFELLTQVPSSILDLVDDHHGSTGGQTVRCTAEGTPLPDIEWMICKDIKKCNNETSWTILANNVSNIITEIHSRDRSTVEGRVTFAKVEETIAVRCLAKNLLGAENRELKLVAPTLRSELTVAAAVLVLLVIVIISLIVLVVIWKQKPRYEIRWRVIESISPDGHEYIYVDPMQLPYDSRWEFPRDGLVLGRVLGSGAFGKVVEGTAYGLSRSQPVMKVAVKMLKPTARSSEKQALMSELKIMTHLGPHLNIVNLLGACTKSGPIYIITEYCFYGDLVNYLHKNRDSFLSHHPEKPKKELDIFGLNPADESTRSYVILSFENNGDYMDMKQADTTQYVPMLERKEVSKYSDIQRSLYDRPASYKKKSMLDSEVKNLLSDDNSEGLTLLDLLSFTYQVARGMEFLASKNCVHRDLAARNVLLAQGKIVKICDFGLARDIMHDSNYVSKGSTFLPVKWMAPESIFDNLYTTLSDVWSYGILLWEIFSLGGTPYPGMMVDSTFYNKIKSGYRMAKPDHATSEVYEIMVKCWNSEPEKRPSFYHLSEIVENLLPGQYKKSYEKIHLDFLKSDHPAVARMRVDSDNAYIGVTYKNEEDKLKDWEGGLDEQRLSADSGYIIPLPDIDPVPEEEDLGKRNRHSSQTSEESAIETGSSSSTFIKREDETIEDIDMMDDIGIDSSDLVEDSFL
# [9] = molecular target: Serine/threonine-protein kinase 3 (Homo sapiens, UniProt Q13188); type: functional;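 also: measured as one member of a kinome-wide kinase panel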
# Protein RecA = molecular target: T4, Protein RecA (Mycobacterium tuberculosis, UniProt P9WHJ3); assay: Fluorescence Cell-Free Homogeneous Dose Retest to Identify Inhibitors of RecA-Intein Splicing Activity. [Related pubchem assays (depositor defined):AID2097, AID2223, AID489010, AID492950]; type: functional
# T4 sequence (P9WHJ3 whole entry): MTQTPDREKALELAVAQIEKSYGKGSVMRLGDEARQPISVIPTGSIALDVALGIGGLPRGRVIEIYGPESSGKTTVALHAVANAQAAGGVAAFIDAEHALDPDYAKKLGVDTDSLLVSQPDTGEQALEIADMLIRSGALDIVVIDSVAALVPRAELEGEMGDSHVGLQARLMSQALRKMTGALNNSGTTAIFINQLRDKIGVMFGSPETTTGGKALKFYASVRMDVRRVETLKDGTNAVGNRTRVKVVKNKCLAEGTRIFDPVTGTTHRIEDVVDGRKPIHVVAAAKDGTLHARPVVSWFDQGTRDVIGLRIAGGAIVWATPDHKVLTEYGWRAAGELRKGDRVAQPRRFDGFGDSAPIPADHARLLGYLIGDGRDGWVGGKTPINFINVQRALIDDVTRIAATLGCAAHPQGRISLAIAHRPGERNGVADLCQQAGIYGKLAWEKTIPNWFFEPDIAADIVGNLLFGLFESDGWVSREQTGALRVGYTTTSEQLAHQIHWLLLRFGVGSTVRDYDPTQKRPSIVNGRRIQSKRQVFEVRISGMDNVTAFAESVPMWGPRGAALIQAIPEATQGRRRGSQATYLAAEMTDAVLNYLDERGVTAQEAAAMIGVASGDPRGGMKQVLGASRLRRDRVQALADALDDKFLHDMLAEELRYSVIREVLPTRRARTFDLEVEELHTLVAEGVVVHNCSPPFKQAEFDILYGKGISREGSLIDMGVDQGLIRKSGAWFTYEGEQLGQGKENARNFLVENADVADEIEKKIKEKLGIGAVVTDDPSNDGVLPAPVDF
# SUMO-activating enzyme = SUMO-activating enzyme (Homo sapiens, UniProt Q9UBT2); assay: blockers of UBC9-mediated SUMO conjugation – biochemical, AlphaScreen, SUMOylation inhibitor project, confirmation (AID 2018); type: functional
# SUMO-activating enzyme, sequence (Q9UBE0 whole entry): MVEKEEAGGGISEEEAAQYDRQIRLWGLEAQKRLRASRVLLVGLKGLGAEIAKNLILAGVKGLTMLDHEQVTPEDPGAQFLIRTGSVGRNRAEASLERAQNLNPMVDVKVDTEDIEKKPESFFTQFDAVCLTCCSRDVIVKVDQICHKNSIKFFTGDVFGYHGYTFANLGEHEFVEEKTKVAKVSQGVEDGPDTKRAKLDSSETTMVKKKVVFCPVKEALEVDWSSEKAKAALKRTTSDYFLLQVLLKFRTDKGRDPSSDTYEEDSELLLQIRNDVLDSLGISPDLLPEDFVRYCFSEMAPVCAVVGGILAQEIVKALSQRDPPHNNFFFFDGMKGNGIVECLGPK
# SUMO-activating enzyme, sequence (Q9UBT2 whole entry): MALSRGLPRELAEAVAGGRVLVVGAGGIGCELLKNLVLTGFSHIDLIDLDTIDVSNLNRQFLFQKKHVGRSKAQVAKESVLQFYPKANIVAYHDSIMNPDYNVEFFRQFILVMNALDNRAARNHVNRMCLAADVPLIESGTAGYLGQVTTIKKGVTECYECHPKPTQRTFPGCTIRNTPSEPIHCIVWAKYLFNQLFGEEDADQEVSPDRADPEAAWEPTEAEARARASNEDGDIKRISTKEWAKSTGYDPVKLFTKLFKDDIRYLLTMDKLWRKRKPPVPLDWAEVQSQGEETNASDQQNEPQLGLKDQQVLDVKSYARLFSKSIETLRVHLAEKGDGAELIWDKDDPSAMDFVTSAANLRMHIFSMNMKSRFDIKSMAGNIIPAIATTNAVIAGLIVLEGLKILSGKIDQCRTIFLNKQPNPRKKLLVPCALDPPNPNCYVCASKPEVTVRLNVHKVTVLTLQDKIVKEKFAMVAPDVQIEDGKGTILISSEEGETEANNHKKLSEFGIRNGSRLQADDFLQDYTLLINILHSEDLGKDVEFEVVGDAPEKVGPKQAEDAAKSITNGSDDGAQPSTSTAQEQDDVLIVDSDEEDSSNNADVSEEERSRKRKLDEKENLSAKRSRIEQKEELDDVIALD
# Serine/threonine-protein kinase Nek2, sequence (P51955 whole entry): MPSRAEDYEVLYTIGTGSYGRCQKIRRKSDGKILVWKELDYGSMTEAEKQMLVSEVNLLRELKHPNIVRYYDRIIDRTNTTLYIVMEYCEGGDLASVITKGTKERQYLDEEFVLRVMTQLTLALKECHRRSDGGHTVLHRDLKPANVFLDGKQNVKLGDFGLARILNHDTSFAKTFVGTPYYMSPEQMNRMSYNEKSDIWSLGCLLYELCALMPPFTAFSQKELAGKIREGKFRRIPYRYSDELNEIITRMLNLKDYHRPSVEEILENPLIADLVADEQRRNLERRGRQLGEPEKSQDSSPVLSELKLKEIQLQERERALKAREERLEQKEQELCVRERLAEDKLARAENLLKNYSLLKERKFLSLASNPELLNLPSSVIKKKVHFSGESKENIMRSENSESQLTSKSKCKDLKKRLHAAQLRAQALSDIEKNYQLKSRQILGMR
# Hepatocyte growth factor receptor, sequence (P08581 whole entry): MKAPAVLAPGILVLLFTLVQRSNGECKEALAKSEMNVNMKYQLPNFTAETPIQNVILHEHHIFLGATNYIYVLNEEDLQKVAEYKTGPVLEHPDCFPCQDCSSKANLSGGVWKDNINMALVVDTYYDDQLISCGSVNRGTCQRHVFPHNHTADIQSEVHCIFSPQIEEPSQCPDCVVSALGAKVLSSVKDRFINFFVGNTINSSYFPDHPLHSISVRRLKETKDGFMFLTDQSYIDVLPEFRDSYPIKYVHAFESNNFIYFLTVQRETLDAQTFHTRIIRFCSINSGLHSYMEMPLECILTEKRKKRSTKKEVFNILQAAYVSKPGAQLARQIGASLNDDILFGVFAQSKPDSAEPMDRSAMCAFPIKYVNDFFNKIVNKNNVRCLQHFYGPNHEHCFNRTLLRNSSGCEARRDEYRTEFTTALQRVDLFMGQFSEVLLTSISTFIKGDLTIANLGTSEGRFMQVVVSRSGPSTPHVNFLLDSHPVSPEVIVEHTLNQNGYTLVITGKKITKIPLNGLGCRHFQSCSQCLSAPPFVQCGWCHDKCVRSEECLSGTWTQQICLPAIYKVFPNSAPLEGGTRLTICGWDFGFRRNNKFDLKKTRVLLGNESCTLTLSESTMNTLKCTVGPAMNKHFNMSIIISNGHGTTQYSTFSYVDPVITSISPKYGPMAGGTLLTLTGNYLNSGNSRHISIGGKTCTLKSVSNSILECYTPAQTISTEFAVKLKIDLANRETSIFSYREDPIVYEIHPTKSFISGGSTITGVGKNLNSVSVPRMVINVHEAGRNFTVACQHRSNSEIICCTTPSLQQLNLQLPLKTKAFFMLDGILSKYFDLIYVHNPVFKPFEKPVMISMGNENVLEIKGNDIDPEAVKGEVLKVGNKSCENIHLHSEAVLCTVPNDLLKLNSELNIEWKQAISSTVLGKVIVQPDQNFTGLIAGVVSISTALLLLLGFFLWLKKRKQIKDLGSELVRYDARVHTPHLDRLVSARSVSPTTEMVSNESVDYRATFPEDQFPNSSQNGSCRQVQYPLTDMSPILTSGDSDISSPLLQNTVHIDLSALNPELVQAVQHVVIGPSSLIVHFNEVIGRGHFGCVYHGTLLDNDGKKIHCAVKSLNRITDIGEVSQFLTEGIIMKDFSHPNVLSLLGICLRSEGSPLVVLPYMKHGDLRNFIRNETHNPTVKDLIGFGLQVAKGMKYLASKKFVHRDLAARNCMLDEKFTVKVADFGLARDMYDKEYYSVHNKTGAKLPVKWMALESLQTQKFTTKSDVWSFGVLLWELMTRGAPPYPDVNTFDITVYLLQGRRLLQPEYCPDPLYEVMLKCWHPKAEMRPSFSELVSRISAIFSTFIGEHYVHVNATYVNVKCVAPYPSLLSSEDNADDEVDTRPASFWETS
smiles,measurement,setting,value
Nc1c(-c2ccc(NC(=O)Nc3cccc(C(F)(F)F)c3)cc2)cnc2c(-c3ccc4c(c3)OCO4)cnn12,Ki,[1],> 2510 nM (inactive)
same,Ki,[2],1260 nM (active)
same,Ki,Aurora kinase B,1000 nM (active)
same,Ki,LIM domain kinase 1,> 3160 nM (inactive)
CCN1C(=Cc2sc3ccccc3[n+]2C)C=Cc2cccc(C)c21,AC50,[3],4690 nM (active)
same,AC50,[4],1860 nM (active)
same,EC50,[5],1860 nM (active)
same,CC50,HeLa,1870 nM (active)
same,EC50,[6],< 100 nM (active)
same,EC50,Hexokinase-1,> 80000 nM (inactive)
same,EC50,cells,< 4 nM (active)
CNC[C@H](Cc1ccccc1)NC[C@@H](Cc1cccc2ccccc12)NCCc1ccc(C)cc1,IC50,[7],11500 nM (active)
same,IC50,Bcl-2-related protein A1,> 20000 nM (inactive)
O=C(Nc1cc(-c2c[nH]c3ncccc23)cc(Cl)n1)c1ccccc1,Ki,[8],> 2510 nM (inactive)
same,Ki,[9],> 3160 nM (inactive)
O=C(Cc1ccccc1Cl)NC1(O)C(=O)c2ccccc2C1=O,EC50,Protein RecA,8180 nM (active)
same,IC50,SUMO-activating enzyme,5640 nM (active)
